Test results as given in the supplement of paper PMC11061612.

How the values were obtained:
AZD7648 = compound: Cc1cc2ncnn2cc1Nc1ncc2c(n1)n(C1CCOCC1)c(=O)n2C [AZD7648]; details: max 10 µM
Procedure, shortened: (§1)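 Following 24 hours at 37°C and 5% CO2, cancer cell lines in 1536-well plates with 7.5 μl DMEM/F12 or RPMI and 10% FBS were dosed for 72 hours, final DMSO typically being 0.2%. CellTiter-Glo 2.0 luminescence, scaled between blank-well and DMSO-well means, gave the viability readout. Dose responses were fitted to a two-parameter logistic curve with a non-linear mixed effects model, and the single-agent IC50 was derived from this fit.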

AZD5363 = compound: C1CN(CCC1(C(=O)N[C@@H](CCO)C2=CC=C(C=C2)Cl)N)C3=NC=NC4=C3C=CN4 [AZD5363]; details: max 10 µM
Procedure, shortened: as §1

AZD2811 = compound: CCN(CCO)CCCOc1ccc2c(Nc3cc(CC(=O)Nc4cccc(F)c4)[nH]n3)ncnc2c1 [AZD2811]; details: max 1 µM
Procedure, shortened: as §1

AZD8186 = compound: C[C@@H](Nc1cc(F)cc(F)c1)c1cc(C(=O)N(C)C)cc2c(=O)cc(N3CCOCC3)oc12 [AZD8186]; details: max 10 µM
Procedure, shortened: as §1

SRA737 = compound: N#Cc1cnc(Nc2cc(NC[C@H]3CNCCO3)c(C(F)(F)F)cn2)cn1 [SRA737]; details: max 10 µM
Procedure, shortened: as §1

AZD0156 = compound: CN(C)CCCOc1ccc(-c2ccc3ncc4c(c3c2)n(C2CCOCC2)c(=O)n4C)cn1 [AZD0156]; details: max 3 µM
Procedure, shortened: as §1

AZD5153 = compound: COc1nnc2ccc(N3CCC(c4ccc(OCCN5CCN(C)C(=O)[C@H]5C)cc4)CC3)nn12 [AZD5153]; details: max 1 µM
Procedure, shortened: as §1

AZD4320 = compound: CN(CC[C@H](CSC1=CC=CC=C1)NC2=C(C=C(C=C2)S(=O)(=O)NC(=O)C3=CC=C(C=C3)N4CCC(CC4)[C@H](C5=CC=CC=C5C6=CC=C(C=C6)Cl)O)S(=O)(=O)C(F)(F)F)CCO [AZD4320]; details: max 1 µM
Procedure, shortened: as §1

Etoposide = compound: COc1cc([C@@H]2c3cc4c(cc3[C@@H](O[C@@H]3O[C@@H]5CO[C@@H](C)O[C@H]5[C@H](O)[C@H]3O)[C@H]3COC(=O)[C@H]23)OCO4)cc(OC)c1O [Etoposide]; details: max 10 µM
Procedure, shortened: as §1

Gefitinib = compound: COc1cc2ncnc(Nc3ccc(F)c(Cl)c3)c2cc1OCCCN1CCOCC1 [Gefitinib]; details: max 10 µM
Procedure, shortened: as §1

5-Fluorouracil = compound: O=c1[nH]cc(F)c(=O)[nH]1 [5-Fluorouracil]; details: max 20 µM
Procedure, shortened: as §1

Prexasertib = compound: COc1cccc(OCCCN)c1-c1cc(Nc2cnc(C#N)cn2)n[nH]1 [Prexasertib]; details: max 1 µM
Procedure, shortened: as §1

Olaparib = compound: O=C(c1cc(Cc2n[nH]c(=O)c3ccccc23)ccc1F)N1CCN(C(=O)C2CC2)CC1 [Olaparib]; details: max 10 µM
Procedure, shortened: as §1

SN-38 = compound: CCc1c2c(nc3ccc(O)cc13)-c1cc3c(c(=O)n1C2)COC(=O)[C@]3(O)CC [SN-38]; details: max 0.3 µM
Procedure, shortened: as §1

Trametinib = compound: CC(=O)Nc1cccc(-n2c(=O)n(C3CC3)c(=O)c3c(Nc4ccc(I)cc4F)n(C)c(=O)c(C)c32)c1 [Trametinib]; details: max 1 µM
Procedure, shortened: as §1

Gemcitabine = compound: Nc1ccn([C@@H]2O[C@H](CO)[C@@H](O)C2(F)F)c(=O)n1 [Gemcitabine]; details: max 0.3 µM
Procedure, shortened: as §1

Taselisib = compound: Cc1nc(-c2cn3c(n2)-c2ccc(-c4cnn(C(C)(C)C(N)=O)c4)cc2OCC3)n(C(C)C)n1 [Taselisib]; details: max 10 µM
Procedure, shortened: as §1

Savolitinib = compound: C[C@@H](c1ccc2nccn2c1)n1nnc2ncc(-c3cnn(C)c3)nc21 [Savolitinib]; details: max 1 µM
Procedure, shortened: as §1

AZD5991 = compound: Cc1c2c(nn1C)CSCc1cc(n(C)n1)CSc1cc(c3ccccc3c1)OCCCc1c(C(=O)O)n(C)c3c-2c(Cl)ccc13 [AZD5991]; details: max 1 µM
Procedure, shortened: as §1

Lapatinib = compound: CS(=O)(=O)CCNCc1ccc(-c2ccc3ncnc(Nc4ccc(OCc5cccc(F)c5)c(Cl)c4)c3c2)o1 [Lapatinib]; details: max 10 µM
Procedure, shortened: as §1

Palbociclib = compound: CC(=O)c1c(C)c2cnc(Nc3ccc(N4CCNCC4)cn3)nc2n(C2CCCC2)c1=O [Palbociclib]; details: max 10 µM
Procedure, shortened: as §1

MK-2206 = compound: NC1(c2ccc(-c3nc4ccn5c(=O)[nH]nc5c4cc3-c3ccccc3)cc2)CCC1 [MK-2206]; details: max 10 µM
Procedure, shortened: as §1

Paclitaxel = compound: CC(=O)O[C@H]1C(=O)[C@@]2(C)[C@H]([C@H](OC(=O)c3ccccc3)[C@]3(O)C[C@H](OC(=O)[C@H](O)[C@@H](NC(=O)c4ccccc4)c4ccccc4)C(C)=C1C3(C)C)[C@]1(OC(C)=O)CO[C@@H]1C[C@@H]2O [Paclitaxel]; details: max 3 µM
Procedure, shortened: as §1

AZD6738 = compound: C[C@@H]1COCCN1C2=NC(=NC(=C2)C3(CC3)[S@](=N)(=O)C)C4=C5C=CNC5=NC=C4 [AZD6738]; details: max 10 µM
Procedure, shortened: as §1

Dasatinib = compound: CC1=C(C(=CC=C1)Cl)NC(=O)C2=CN=C(S2)NC3=CC(=NC(=N3)C)N4CCN(CC4)CCO [Dasatinib]; details: max 2 µM
Procedure, shortened: as §1

Venetoclax = compound: CC1(C)CCC(CN2CCN(c3ccc(C(=O)NS(=O)(=O)c4ccc(NCC5CCOCC5)c([N+](=O)[O-])c4)c(Oc4cnc5[nH]ccc5c4)c3)CC2)=C(c2ccc(Cl)cc2)C1 [Venetoclax]; details: max 1 µM
Procedure, shortened: as §1

[1] = compound: O=C(Nc1ccc2[nH]nc(-c3ccncc3)c2c1)[C@@H]1CCN(CC(=O)N2CCN(c3ccc(-c4ncccn4)cc3)CC2)C1; details: max 5 µM
Procedure, shortened: as §1

Doxorubicin = compound: COc1cccc2c1C(=O)c1c(O)c3c(c(O)c1C2=O)C[C@@](O)(C(=O)CO)C[C@@H]3O[C@H]1C[C@H](N)[C@H](O)[C@H](C)O1 [Doxorubicin]; details: max 1 µM
Procedure, shortened: as §1

Crizotinib = compound: C[C@@H](Oc1cc(-c2cnn(C3CCNCC3)c2)cnc1N)c1c(Cl)ccc(F)c1Cl [Crizotinib]; details: max 10 µM
Procedure, shortened: as §1

AZD1390 = compound: CC(C)n1c(=O)n(C)c2cnc3cc(F)c(-c4ccc(OCCCN5CCCCC5)nc4)cc3c21 [AZD1390]; details: max 0.3 µM
Procedure, shortened: as §1

AZD1775 = compound: C=CCn1c(=O)c2cnc(Nc3ccc(N4CCN(C)CC4)cc3)nc2n1-c1cccc(C(C)(C)O)n1 [AZD1775]; details: max 3 µM
Procedure, shortened: as §1

Selumetinib = compound: Cn1cnc2c(F)c(Nc3ccc(Br)cc3Cl)c(C(=O)NOCCO)cc21 [Selumetinib]; details: max 10 µM
Procedure, shortened: as §1

SG3199 = compound: CC1=CN2[C@@H](C1)C=NC3=CC(=C(C=C3C2=O)OC)OCCCCCOC4=C(C=C5C(=C4)N=C[C@@H]6CC(=CN6C5=O)C)OC [SG3199]; details: max 0.001 µM
Procedure, shortened: as §1

Carboplatin = compound: C1CC(C1)(C(=O)[O-])C(=O)[O-].N.N.[Pt+2] [Carboplatin]; details: max 10 µM
Procedure, shortened: as §1

Alisertib = compound: COc1cc(Nc2ncc3c(n2)-c2ccc(Cl)cc2C(c2c(F)cccc2OC)=NC3)ccc1C(=O)O [Alisertib]; details: max 10 µM
Procedure, shortened: as §1

| Cell Line | IC50, cell viability 72 h (AZD7648) [nM] | IC50, cell viability 72 h (AZD5363) [nM] | IC50, cell viability 72 h (AZD2811) [nM] | IC50, cell viability 72 h (AZD8186) [nM] | IC50, cell viability 72 h (SRA737) [nM] | IC50, cell viability 72 h (AZD0156) [nM] | IC50, cell viability 72 h (AZD5153) [nM] | IC50, cell viability 72 h (AZD4320) [nM] | IC50, cell viability 72 h (Etoposide) [nM] | IC50, cell viability 72 h (Gefitinib) [nM] | IC50, cell viability 72 h (5-Fluorouracil) [nM] | IC50, cell viability 72 h (Prexasertib) [nM] | IC50, cell viability 72 h (Olaparib) [nM] | IC50, cell viability 72 h (SN-38) [nM] | IC50, cell viability 72 h (Trametinib) [nM] | IC50, cell viability 72 h (Gemcitabine) [nM] | IC50, cell viability 72 h (Taselisib) [nM] | IC50, cell viability 72 h (Savolitinib) [nM] | IC50, cell viability 72 h (AZD5991) [nM] | IC50, cell viability 72 h (Lapatinib) [nM] | IC50, cell viability 72 h (Palbociclib) [nM] | IC50, cell viability 72 h (MK-2206) [nM] | IC50, cell viability 72 h (Paclitaxel) [nM] | IC50, cell viability 72 h (AZD6738) [nM] | IC50, cell viability 72 h (Dasatinib) [nM] | IC50, cell viability 72 h (Venetoclax) [nM] | IC50, cell viability 72 h [1] [nM] | IC50, cell viability 72 h (Doxorubicin) [nM] | IC50, cell viability 72 h (Crizotinib) [nM] | IC50, cell viability 72 h (AZD1390) [nM] | IC50, cell viability 72 h (AZD1775) [nM] | IC50, cell viability 72 h (Selumetinib) [nM] | IC50, cell viability 72 h (SG3199) [nM] | IC50, cell viability 72 h (Carboplatin) [nM] | IC50, cell viability 72 h (Alisertib) [nM] |
| --- | --- | --- | --- | --- | --- | --- | --- | --- | --- | --- | --- | --- | --- | --- | --- | --- | --- | --- | --- | --- | --- | --- | --- | --- | --- | --- | --- | --- | --- | --- | --- | --- | --- | --- | --- |
| HCT-116 (Colorectal Carcinoma) | > 10000 | > 10000 | > 1000 | > 10000 | > 10000 | > 3000 | 244 | > 1000 | 5460 | > 10000 | 10600 | 635 | > 10000 | 19 | 16.3 | 13.1 | 2170 | > 1000 | > 1000 | > 10000 | 8690 | > 10000 | 3.24 | 6970 | > 2000 | > 1000 | 129 | 218 | 2760 | > 300 | 1960 | 2500 | > 1 | > 10000 | 1070 |
| HLE (Hepatocellular Carcinoma) | > 10000 | > 10000 | > 1000 | > 10000 | > 10000 | > 3000 | > 1000 | > 1000 | > 10000 | > 10000 | > 20000 | 107 | > 10000 | 14.3 | > 1000 | 114 | > 10000 | > 1000 | > 1000 | > 10000 | > 10000 | > 10000 | 60.3 | 4910 | > 2000 | > 1000 | > 5000 | 426 | > 10000 | > 300 | 625 | > 10000 | > 1 | > 10000 | 2230 |
| MEG-01 (Chronic Myelogenous Leukemia) | > 10000 | > 10000 | 776 | > 10000 | 1180 | > 3000 | 83.2 | 309 | 4890 | > 10000 | > 20000 | 8.09 | > 10000 | 74.4 | 38.9 | 51.4 | > 10000 | > 1000 | > 1000 | > 10000 | > 10000 | > 10000 | 158 | 812 | < 2 | > 1000 | 1220 | 540 | 828 | > 300 | 292 | 3410 | > 1 | > 10000 | 3120 |
| MSTO-211H (Mesothelioma) | > 10000 | > 10000 | > 1000 | > 10000 | > 10000 | > 3000 | > 1000 | > 1000 | 9060 | > 10000 | > 20000 | 54.4 | > 10000 | 47 | 874 | 21.9 | > 10000 | > 1000 | > 1000 | > 10000 | > 10000 | > 10000 | 2950 | 7720 | > 2000 | > 1000 | > 5000 | 857 | > 10000 | > 300 | > 3000 | > 10000 | > 1 | > 10000 | 3840 |
| NOMO-1 (Acute Myeloid Leukemia) | > 10000 | > 10000 | 905 | 9000 | 1160 | > 3000 | 50.4 | > 1000 | 2120 | > 10000 | 2210 | 5.79 | > 10000 | 7.23 | 3.07 | 10.1 | 1510 | > 1000 | 210 | > 10000 | 6660 | > 10000 | 7.09 | 1660 | > 2000 | 627 | 591 | 542 | 8600 | > 300 | 215 | 138 | > 1 | > 10000 | 4160 |
